This assay has as its target BRAF V600E (Homo sapiens, UniProt P15056, V600E). The assay can be described thus: LanthaScreen biochemical kinase assay. A general note: Time-resolved FRET reads energy transfer from a long-lived donor to a nearby acceptor.

The values that follow come from article PMC6272942, “Lead Discovery of Type II BRAF V600E Inhibitors Targeting the Structurally Validated DFG-Out Conformation Based upon Selected Fragments” (Molecules, 2016).

By IC50 is commonly meant the concentration at which inhibition is half-maximal. A low value points to inhibition by little substance.

Each structure is given as a SMILES string.

Chain of BRAF V600E (P15056 whole entry V600E): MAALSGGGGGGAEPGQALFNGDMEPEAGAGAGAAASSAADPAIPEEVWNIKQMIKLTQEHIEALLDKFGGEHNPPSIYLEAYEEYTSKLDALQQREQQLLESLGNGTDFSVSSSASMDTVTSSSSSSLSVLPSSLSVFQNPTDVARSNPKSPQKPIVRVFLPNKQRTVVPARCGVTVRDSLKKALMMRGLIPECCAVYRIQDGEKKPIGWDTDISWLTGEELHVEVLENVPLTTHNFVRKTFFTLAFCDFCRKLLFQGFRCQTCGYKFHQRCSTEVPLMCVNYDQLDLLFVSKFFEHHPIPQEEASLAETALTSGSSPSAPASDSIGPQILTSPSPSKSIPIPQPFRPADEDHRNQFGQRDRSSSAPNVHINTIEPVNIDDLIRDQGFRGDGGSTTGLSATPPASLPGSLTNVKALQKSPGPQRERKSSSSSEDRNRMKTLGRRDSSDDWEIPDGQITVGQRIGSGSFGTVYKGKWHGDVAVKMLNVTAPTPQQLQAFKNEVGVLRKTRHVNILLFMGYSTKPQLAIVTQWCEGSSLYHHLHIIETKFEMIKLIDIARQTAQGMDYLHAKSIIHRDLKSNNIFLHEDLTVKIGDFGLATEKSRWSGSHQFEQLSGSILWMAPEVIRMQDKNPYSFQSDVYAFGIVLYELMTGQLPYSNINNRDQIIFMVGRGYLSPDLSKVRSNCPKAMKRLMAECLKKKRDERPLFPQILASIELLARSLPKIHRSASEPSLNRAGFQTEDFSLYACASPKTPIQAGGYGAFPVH

As for `Cc1nc(Nc2ccc(NC(=O)Nc3ccc(F)c(Cl)c3)cc2)cc(N2CCOCC2)n1` [SI-008, 1-(3-Chloro-4-fluorophenyl)-3-(4-(2-methyl-6-morpholinopyrimidin-4-ylamino)phenyl)urea], the IC50 worked out at 0.685 µM.

`Cc1nc(Nc2cccc(NC(=O)Nc3cc(F)ccc3C)c2)cc(N2CCOCC2)n1` [SI-046, 1-(5-Fluoro-2-methylphenyl)-3-(3-(2-methyl-6-morpholinopyrimidin-4-ylamino)phenyl)urea] registered an IC50 of 0.298 µM.
